“And” between values parts separate entries of the source, which are not always exact repeats. Identical values can stand only once. Blank lines part the entries; values can stand above or below the compound they belong to.
Legend:
[1] = tested on: L1210; test: Antitumor activity against mouse L1210 cells […] in ip dosed C3H X DBA2 F1 hybrid mouse on day 0 and dosed at LD10 level once daily on days 1 to 5 assessed as increase in life span relative to control; format: functional
[2] = Displacement of ethidium from poly[d(G-C)]-poly[d(G-C)] DNA (unknown origin) by fluorimetric method
[3] = Lipophilic-hydrophilic balance, Rm of the compound by partition chromatography; format: physicochemical
[4] = tested on: L1210; test: Antitumor activity against mouse L1210 cells […] in ip dosed C3H X DBA2 F1 hybrid mouse on day 0 and dosed once daily on days 1 to 5 assessed as increase in life span relative to control; format: functional
[5] = organism: Bos taurus; test: Displacement of ethidium from calf thymus DNA by fluorimetric method
[6] = Displacement of ethidium from poly[d(A-T)]-poly[d(A-T)] DNA by fluorimetric method
[7] = tested on: Mus musculus; test: Toxicity in ip dosed C3H X DBA2 F1 hybrid mouse […] with mouse L1210 cells on day 0 and dosed once daily on days 1 to 5 measured after 50 days; format: organism-based; details: in vivo, 1200 h

Compound: C/C(=N\NC(=N)N)c1ccc(NC(=O)c2ccc(Nc3cc[n+](C)c4cc(N)ccc34)cc2)cc1.Cc1ccc(S(=O)(=O)O)cc1.Cc1ccc(S(=O)(=O)[O-])cc1
log(ILSmax) [1]: 2.2 | C50 [2]: 1 µM | Rm [3]: -0.36 | D40 [4]: 4 mg/kg | C50 [5]: 0.53 µM | C50 [6]: 0.19 µM | LD10 [7]: 31 mg/kg

Compound: CCCC[n+]1cccc(C(=O)Nc2ccc(NC(=O)c3ccc(C(=O)Nc4ccc5c(ccc[n+]5CCCC)c4)cc3)cc2)c1.Cc1ccc(S(=O)(=O)[O-])cc1.Cc1ccc(S(=O)(=O)[O-])cc1
log(ILSmax) [1]: 1.72 | C50 [2]: 4.2 µM | Rm [3]: 0.65 | D40 [4]: 12 mg/kg | C50 [5]: 2.5 µM | C50 [6]: 2.1 µM | LD10 [7]: 19 mg/kg

Compound: C[n+]1cccc(-c2ccc(NC(=O)/C=C/c3ccc(C(=O)Nc4ccc(-c5ccc(-c6ccc(-c7ccc[n+](C)c7)cc6)cc5)cc4)cc3)cc2)c1.Cc1ccc(S(=O)(=O)[O-])cc1.Cc1ccc(S(=O)(=O)[O-])cc1
log(ILSmax) [1]: 2.16 | C50 [2]: 0.46 µM | Rm [3]: -0.75 | D40 [4]: 26.9 mg/kg | C50 [5]: 0.3 µM | C50 [6]: 0.13 µM | LD10 [7]: 85 mg/kg

Compound: Br.C/C(=N\NC(=N)N)c1ccc(NC(=O)c2ccc(Nc3cc[n+](C)c4ccc(N)cc34)cc2)cc1.[Br-]
log(ILSmax) [1]: 2.31 | C50 [2]: 0.5 µM | Rm [3]: -0.45 | D40 [4]: 2.1 mg/kg | C50 [5]: 0.4 µM | C50 [6]: 0.11 µM | LD10 [7]: 28 mg/kg

Compound: C[n+]1ccc(Nc2ccc(C(=O)Nc3ccc(Nc4cc[n+](C)c5cc(N)ccc45)cc3)c(N)c2)cc1.Cc1ccc(S(=O)(=O)[O-])cc1.Cc1ccc(S(=O)(=O)[O-])cc1
log(ILSmax) [1]: 2.38 | C50 [2]: 0.77 µM | Rm [3]: -0.12 | D40 [4]: 1.7 mg/kg | C50 [5]: 0.44 µM | C50 [6]: 0.14 µM | LD10 [7]: 20 mg/kg

Compound: C[n+]1cccc(NC(=O)c2ccc(NC(=O)/C=C/c3ccc(C(=O)Nc4ccc(C(=O)Nc5ccc[n+](C)c5)cc4)cc3)cc2)c1.Cc1ccc(S(=O)(=O)[O-])cc1.Cc1ccc(S(=O)(=O)[O-])cc1
log(ILSmax) [1]: 1.99 | C50 [2]: 0.23 µM | Rm [3]: -0.95 | D40 [4]: 21 mg/kg | C50 [5]: 0.3 µM | C50 [6]: 0.22 µM | LD10 [7]: 100 mg/kg

Compound: Cc1c[n+](C)c2ccccc2c1Nc1ccc(C(=O)Nc2ccc(Nc3cc[n+](C)cc3)cc2)cc1.[Br-].[Br-]
log(ILSmax) [1]: <1.4 | C50 [2]: 15 µM | Rm [3]: 0.6 | C50 [5]: 4.9 µM | C50 [6]: 4.5 µM | LD10 [7]: 5 mg/kg

Compound: C[n+]1cccc(NC(=O)c2ccc(NC(=O)c3ccc(C(=O)Nc4ccc(Nc5cc[n+](C)c6ccc(N)cc56)cc4)cc3)cc2)c1.Cc1ccc(S(=O)(=O)[O-])cc1.Cc1ccc(S(=O)(=O)[O-])cc1
log(ILSmax) [1]: 1.95 | C50 [2]: 0.34 µM | Rm [3]: -0.47 | D40 [4]: 22.1 mg/kg | C50 [5]: 0.31 µM | C50 [6]: 0.22 µM | LD10 [7]: 140 mg/kg

Compound: CC[n+]1ccc(Nc2ccc(NC(=O)c3ccc(Nc4cc(C)[n+](CC)c5ccc(N)cc45)cc3N)cc2)cc1.[I-].[I-]
log(ILSmax) [1]: 1.86 | C50 [2]: 1.17 µM | Rm [3]: 0.34 | D40 [4]: 7.2 mg/kg | C50 [5]: 0.5 µM | C50 [6]: 0.31 µM | LD10 [7]: 20 mg/kg

Compound: Br.C/C(=N\NC(=N)N)c1ccc(NC(=O)Nc2ccc(Nc3cc[n+](C)c4ccc(N)cc34)cc2)cc1.[Br-]
log(ILSmax) [1]: 2.2 | C50 [2]: 0.53 µM | Rm [3]: -0.15 | D40 [4]: 18.5 mg/kg | C50 [5]: 0.42 µM | C50 [6]: 0.25 µM | LD10 [7]: 150 mg/kg

Compound: C[n+]1ccc(Nc2ccc(NC(=O)c3ccc(Nc4cc[n+](C)c5ccc(Cl)cc45)cc3)cc2)cc1.Cc1ccc(S(=O)(=O)[O-])cc1.Cc1ccc(S(=O)(=O)[O-])cc1
log(ILSmax) [1]: 1.81 | C50 [2]: 1.76 µM | Rm [3]: 0.57 | D40 [4]: 14 mg/kg | C50 [5]: 0.79 µM | C50 [6]: 0.24 µM | LD10 [7]: 40 mg/kg

Compound: C[n+]1cccc(NC(=O)c2ccc(NC(=O)c3ccc(C(=O)Nc4ccc(C(=O)Nc5ccc[n+](C)c5)c(N)c4)cc3)cc2N)c1.Cc1ccc(S(=O)(=O)[O-])cc1.Cc1ccc(S(=O)(=O)[O-])cc1
log(ILSmax) [1]: 2.35 | C50 [2]: 0.39 µM | Rm [3]: -0.75 | D40 [4]: 2.4 mg/kg | C50 [5]: 0.26 µM | C50 [6]: 0.12 µM | LD10 [7]: 44 mg/kg

Compound: C[n+]1cccc(NC(=O)c2ccc(NC(=O)c3ccc(C(=O)Nc4ccc(-c5ccc(-c6ccc(-c7ccc[n+](C)c7)cc6)cc5)cc4)cc3)cc2)c1.Cc1ccc(S(=O)(=O)[O-])cc1.Cc1ccc(S(=O)(=O)[O-])cc1
log(ILSmax) [1]: 2.25 | C50 [2]: 0.84 µM | Rm [3]: -0.4 | D40 [4]: 2.5 mg/kg | C50 [5]: 0.63 µM | C50 [6]: 0.5 µM | LD10 [7]: 14 mg/kg

Compound: C[n+]1ccc(Nc2ccc(/C=C/c3ccc(Nc4cc[n+](C)c5ccccc45)cc3)cc2)cc1.[Br-].[Br-]
log(ILSmax) [1]: 1.89 | C50 [2]: 0.67 µM | Rm [3]: 0.61 | D40 [4]: 12 mg/kg | C50 [5]: 0.34 µM | C50 [6]: 0.13 µM | LD10 [7]: 23 mg/kg

Compound: Cc1ccc(S(=O)(=O)[O-])cc1.Cc1ccc(S(=O)(=O)[O-])cc1.Cc1cccc2c(Nc3ccc(C(=O)Nc4ccc(Nc5cc[n+](C)cc5)cc4)cc3)cc[n+](C)c12
log(ILSmax) [1]: 2.02 | C50 [2]: 2.01 µM | Rm [3]: 0.51 | D40 [4]: 12 mg/kg | C50 [5]: 0.87 µM | C50 [6]: 0.31 µM | LD10 [7]: 60 mg/kg

Compound: C[n+]1ccc(Nc2ccc(NC(=O)c3ccc(Nc4cc[n+](C)c5cc(Cl)ccc45)cc3)cc2)cc1.[Br-].[Br-]
log(ILSmax) [1]: 1.97 | C50 [2]: 2.27 µM | Rm [3]: 0.31 | D40 [4]: 12 mg/kg | C50 [5]: 1 µM | C50 [6]: 0.21 µM | LD10 [7]: 39 mg/kg

Compound: C[n+]1ccc(Nc2ccc(NC(=O)CCCCCCC(=O)Nc3ccc(Nc4cc[n+](C)cc4)cc3)cc2)cc1.[Br-].[Br-]
log(ILSmax) [1]: <1.4 | C50 [2]: 75 µM | Rm [3]: 0.59 | C50 [5]: 40 µM | C50 [6]: 20 µM | LD10 [7]: 30 mg/kg

Compound: CCCC[n+]1ccc(Nc2ccc(NC(=O)c3ccc(Nc4cc[n+](CCCC)c5ccccc45)cc3)cc2)cc1.[Br-].[Br-]
log(ILSmax) [1]: <1.4 | C50 [2]: 2.8 µM | Rm [3]: 1.14 | C50 [5]: 2.1 µM | C50 [6]: 0.19 µM | LD10 [7]: 11 mg/kg

Compound: C[n+]1ccc(Nc2ccc(NC(=O)c3ccc(C(=O)Nc4ccc(C(=O)Nc5ccc[n+](C)c5)cc4)cc3)cc2)cc1
C50 [2]: 0.97 µM and 1.35 µM | C50 [5]: 0.63 µM and 0.84 µM | C50 [6]: 0.34 µM and 0.44 µM

Compound: C[n+]1cccc(NC(=O)c2ccc(NC(=O)c3ccc(C(=O)Nc4ccc(C(=O)Nc5ccc[n+](C)c5)c(Cl)c4)cc3)cc2Cl)c1.Cc1ccc(S(=O)(=O)[O-])cc1.Cc1ccc(S(=O)(=O)[O-])cc1
log(ILSmax) [1]: <1.4 | C50 [2]: 2.1 µM | Rm [3]: 0.2 | C50 [5]: 1.4 µM | C50 [6]: 0.99 µM | LD10 [7]: 26 mg/kg

Compound: C/C(=C(/C)c1ccc(Nc2cc[n+](C)c3ccc(N)cc23)cc1)c1ccc(Nc2cc[n+](C)cc2)cc1.[Cl-].[Cl-]
log(ILSmax) [1]: 1.53 | C50 [2]: 2.6 µM | Rm [3]: 0.96 | C50 [5]: 1.7 µM | C50 [6]: 0.9 µM | LD10 [7]: 5.5 mg/kg

Compound: Cc1cc(C(=O)Nc2ccc(C(=O)Nc3ccc[n+](C)c3)cc2)c(C)cc1C(=O)Nc1ccc(C(=O)Nc2ccc[n+](C)c2)cc1.Cc1ccc(S(=O)(=O)[O-])cc1.Cc1ccc(S(=O)(=O)[O-])cc1
log(ILSmax) [1]: 1.43 | C50 [2]: 14 µM | Rm [3]: 0.48 | C50 [5]: 7.8 µM | C50 [6]: 8.1 µM | LD10 [7]: 1.7 mg/kg

Compound: C[n+]1ccc(Nc2ccc(NC(=O)CCCCCC(=O)Nc3ccc(Nc4cc[n+](C)cc4)cc3)cc2)cc1.[Br-].[Br-]
log(ILSmax) [1]: <1.4 | C50 [2]: 77 µM | Rm [3]: 0.49 | C50 [5]: 42 µM | C50 [6]: 22 µM | LD10 [7]: 30 mg/kg

C50 [2]: 2.4 µM | C50 [5]: 0.68 µM | C50 [6]: 0.07 µM
Compound: Cn1cc(NC(=O)c2cc(NC(=O)c3cc(NC=O)cn3C)cn2C)cc1C(=O)NCCC(=N)N

Compound: CCC[n+]1ccccc1-c1ccc(NC(=O)c2ccc(C(=O)Nc3ccc(-c4cccc[n+]4CCC)cc3)cc2)cc1.Cc1ccc(S(=O)(=O)[O-])cc1.Cc1ccc(S(=O)(=O)[O-])cc1
log(ILSmax) [1]: <1.4 | C50 [2]: 2.9 µM | Rm [3]: 0.4 | C50 [5]: 2.2 µM | C50 [6]: 0.83 µM | LD10 [7]: 11 mg/kg

Compound: Cc1cc(Nc2ccc(NC(=O)c3ccc(C(=O)Nc4ccc(C(=O)Nc5ccc[n+](C)c5)cc4)cc3)cc2)nc(N)[n+]1C.[I-].[I-]
log(ILSmax) [1]: <1.4 | C50 [2]: 0.49 µM | Rm [3]: -0.6 | C50 [5]: 0.4 µM | C50 [6]: 0.26 µM | LD10 [7]: 20 mg/kg

Compound: C[n+]1ccc(Nc2ccc(NC(=O)c3ccc(Nc4nc[n+](C)c5ccc(N)cc45)cc3)cc2)cc1.Cc1ccc(S(=O)(=O)[O-])cc1.Cc1ccc(S(=O)(=O)[O-])cc1
log(ILSmax) [1]: <1.4 | C50 [2]: 1.7 µM | Rm [3]: 0.13 | C50 [5]: 0.88 µM | C50 [6]: 0.5 µM | LD10 [7]: 3 mg/kg

Compound: CCCCC[n+]1cccc(NC(=O)c2ccc(NC(=O)c3ccc(C(=O)Nc4ccc(C(=O)Nc5ccc[n+](CCCCC)c5)cc4)cc3)cc2)c1.Cc1ccc(S(=O)(=O)[O-])cc1.Cc1ccc(S(=O)(=O)[O-])cc1
log(ILSmax) [1]: <1.4 | C50 [2]: 0.92 µM | Rm [3]: 0.9 | C50 [5]: 0.38 µM | C50 [6]: 0.42 µM | LD10 [7]: 70 mg/kg

Compound: C[n+]1ccc(Nc2ccc(C(=O)Nc3ccc(Nc4cc[n+](C)c5ccccc45)cc3N)cc2)cc1.[Br-].[Br-]
log(ILSmax) [1]: <1.4 | C50 [2]: 2.05 µM | Rm [3]: 0.35 | C50 [5]: 1.87 µM | C50 [6]: 0.64 µM | LD10 [7]: 7 mg/kg
